Test results as given in patent publication US20060188938A1, “Compounds for inhibiting beta-amyloid production and methods of identifying the compounds” (priority 2005, published 2006).

Legend:
[1] = tested on: β-amyloid production by 7W WT APP751 CHO cells; assay: Screening of dihydropyridine compounds of Table 2, Aβ1-40 and Aβ1-42 (Example 5); assay type: cell-based, Chinese hamster; conditions: for concentration of Aβ1-40 or Aβ1-42 compared to control: 3, 10, 30 and 100 μM, 24 hours (FIGS. 22A, 22B, 23A, 23B)
Description: The 7W WT APP751 CHO cells were plated in 24-well cell culture plates in quadruplicate, containing 1 ml of culture medium, and treated with various calcium channel blocker compounds for 4 hours, 24 hours or 48 hours at 37° C. and 5% CO2. All test compounds were diluted in dimethyl sulfoxide (DMSO) before being added to the cultured confluent 7W WT APP751 CHO cells. The culture medium was collected and diluted 5-fold for the 4 hours assay and 50-fold for the 24 hour assay before being assayed by ELISAs for Aβ1-40 and Aβ1-42, respectively. Concentrations of Aβ1-40 and Aβ1-42, expressed in pg/ml, were determined using commercially available ELISAs (Biosource, CA) in a colorimetric assay using labeled antibodies detected spectrophotometrically.
The screening of dihydropyridine compounds was conducted according to the procedure described in Example 1. Each compound was added to confluent cells to a final concentration of 3, 10, 30 or 100 μM and tested. Each of these compounds was added to confluent cells to a final concentration of 3 μM (noted as “C” in FIG. 24) or 10 μM (noted as “B” in FIG. 24).

Tg APPsw mice = Tg APPsw mice given ibuprofen; cited from earlier work

| Compound | concentration of Aβ1-40 or Aβ1-42 compared to control [1] | melting point [°C] | concentration of Aβ1-40 compared to control ([1]; 3 and 10 μM, 24 hours (FIG. 24)) | β-amyloid deposits, astrocytosis, and dystrophic neurites (Tg APPsw mice) |
| --- | --- | --- | --- | --- |
| CCOC(=O)C1=C(C)NC(C)=C(C(=O)OCC)C1c1ccccc1[N+](=O)[O-] [Example 2-29, Diethyl 1,4-dihydro-2,6-dimethyl-4-(2-nitrophenyl)pyridine-3,5-dicarboxylate] | decreased | 120 to 121 | – | – |
| CC1=C(C(=O)OC(C)(C)C)C(c2ccccc2F)C(C(=O)OC(C)(C)C)=C(C)N1 [Example 2-28, Di-tert-butyl 4-(2-fluorophenyl)-1,4-dihydro-2,6-dimethylpyridine-3,5-dicarboxylate] | decreased | 201 to 202 | – | – |
| CCOC(=O)C1=C(C)NC(C)=C(C(=O)OCC)C1c1cccc(F)c1F [Example 3-22] | – | – | decreased | – |
| CC(C)Cc1ccc(C(C)C(=O)O)cc1 (stereo not drawn) [ibuprofen] | – | – | – | reduction |
